The structures appear in SMILES notation. Read-outs that look alike come from different tables or passages of the source.

For data set [1] the following is noted: cited from earlier work.
The next data set addresses MMP-9 (Mus musculus, UniProt P41245). The experiment in a line: Peptide cleavage by recombinant MMP-9. In kind it is biochemical. Conditions: prinomastat added to prodrug with MMP-9, similar conditions (Figure S1).

Sequence of MMP-9 (P41245 108-730): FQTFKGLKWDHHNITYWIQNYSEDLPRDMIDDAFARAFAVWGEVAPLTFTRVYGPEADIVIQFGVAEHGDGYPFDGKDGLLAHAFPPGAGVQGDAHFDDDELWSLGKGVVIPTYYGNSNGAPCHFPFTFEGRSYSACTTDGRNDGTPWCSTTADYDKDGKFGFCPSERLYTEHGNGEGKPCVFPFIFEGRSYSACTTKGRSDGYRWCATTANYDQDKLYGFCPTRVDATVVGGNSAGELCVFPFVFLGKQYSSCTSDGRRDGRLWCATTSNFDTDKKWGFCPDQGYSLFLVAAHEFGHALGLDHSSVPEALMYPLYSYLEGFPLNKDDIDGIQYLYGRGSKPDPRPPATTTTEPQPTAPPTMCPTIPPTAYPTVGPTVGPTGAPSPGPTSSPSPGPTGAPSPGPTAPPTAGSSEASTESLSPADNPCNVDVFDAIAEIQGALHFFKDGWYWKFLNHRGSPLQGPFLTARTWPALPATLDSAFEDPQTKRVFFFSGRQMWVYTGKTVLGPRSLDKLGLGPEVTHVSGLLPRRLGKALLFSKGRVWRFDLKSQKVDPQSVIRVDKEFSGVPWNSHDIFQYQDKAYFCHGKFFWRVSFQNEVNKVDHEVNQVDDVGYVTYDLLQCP

Take `CC[C@H](C)[C@H](NC(=O)CN)C(=O)NCC(=O)N[C@@H](C)C(=O)N[C@H](C(=O)N[C@@H](CC(C)C)C(=O)N[C@@H](CCCCN)C(=O)N[C@H](C(=O)N[C@@H](CC(C)C)C(=O)N[C@H](C(=O)N[C@H](C(=O)NCC(=O)N[C@@H](CC(C)C)C(=O)N1CCC[C@H]1C(=O)N[C@@H](C)C(=O)N[C@@H](CC(C)C)C(=O)N[C@H](C(=O)N[C@@H](CO)C(=O)N[C@@H](Cc1c[nH]c2ccccc12)C(=O)N[C@H](C(=O)N[C@@H](CCCCN)C(=O)N[C@@H](CCCNC(=N)N)C(=O)N[C@@H](CCCCN)C(=O)N[C@@H](CCCNC(=N)N)C(=O)N[C@@H](CCC(N)=O)C(=O)N[C@@H](CCC(N)=O)C(N)=O)[C@@H](C)CC)[C@@H](C)CC)[C@@H](C)O)[C@@H](C)O)C(C)C)C(C)C` [melittin, Melittin]: the plasma half-life is 24 min in data set [1] (free melittin) and “over 300 minutes” in data set [1] (melittin incorporated onto perfluorocarbon nanoparticles).
Regarding `CC1(C)SCCN(S(=O)(=O)c2ccc(Oc3ccncc3)cc2)[C@H]1C(=O)NO` [prinomastat], on MMP-9, the “effect on prodrug cleavage by MMP-9” value is recorded as “prevented cleavage of the prodrug”.

(Values after publication PMC4740973 (Bioconjugate chemistry, 2015).)
